Measured values reported in US20190166840A1, “SUBSTITUTED PYRAZOLINYL DERIVATIVES, PROCESSES FOR THEIR PREPARATION AND THEIR USE AS HERBICIDES AND/OR PLANT GROWTH REGULATORS” (BAYER CROPSCIENCE AKTIENGESELLSCHAFT, priority 2016, published 2019).

molecular target: T1, photosystem II (PS II) (Spinacia oleracea, UniProt P69560); assay: Activity determination of photosystem II (PS II) in thylakoid membranes, DCPIP reduction; type: biochemical; settings: spinach thylakoid membranes, DCPIP 120 μM, 10 min at 22° C. with illumination; read-out: pI50 (converted)
T1 construct: the chloroplasts were osmotically ruptured and the thylakoid membranes were then obtained by centrifugation; from tissue; host or cells: spinach leaves (thylakoid membrane preparation)
Method: Measurement of PS II Activity in Thylakoid Membranes
1. Preparation of the Thylakoid Membranes
Cooled fresh spinach leaves were comminuted and homogenized in 50 mM phosphate buffer, pH 6.8, 10 mM KCl, 0.34 M sucrose (sucrose buffer) (mixer, 1 g of plant material/ml). The homogenate was subsequently filtered through 4 layers of Miracloth and the chloroplasts were obtained by centrifugation: • 10 minutes (min) of centrifugation at 4400×g (4° C.). • The sediment was suspended in 25 ml of sucrose buffer and centrifuged for another 10 min at 4400×g (4° C.). • The sediment was then suspended in 40 ml of 50 mM phosphate buffer, pH 6.8, 10 mM KCl, without sucrose. • In this step, the chloroplasts were osmotically ruptured and the thylakoid membranes were then obtained by centrifugation (10 min, 4400×g, 4° C.). The membrane sediment was finally suspended in about 20 ml of 50 mM phosphate buffer, pH 6.8, 10 mM KCl. • After protein determination and activity determination, the membrane suspension was aliquoted and frozen in liquid nitrogen. The aliquots were stored at −80° C. Under these conditions, the photosystem II preparation is storage-stable for at least three months.
2. Activity Determination of the Photosystem II (PS II)
The electron transfer from PS II to an artificial electronic captor, 2,6-dichlorophenol-indophenol (DCPIP), is measured under the action of light. The concentration of the blue oxidized form of DCPIP can be determined spectraphotometrically at the wavelength l=595 nm. The enzyme-catalyzed reduction of DCPIP results in a colourless leuco form and thus to a decrease of absorption at 595 nm in the reaction batch, which is measured as a function of time.
The activity determination was carried out in microtiter plates (96 wells) in a reaction volume of 200 μl. 155 μl of dilute membrane suspension in 50 mM phosphate buffer, pH 6.8, 10 mM KCl were initially charged. Depending on the activity of the PS II preparation, the dilution was adjusted such that measurement of the decrease in absorption (λ=595 nm) was linear for at least 10 min.
Typical dilution series of the test compounds comprised 10 concentration steps in the range between 10^−9and 10^−5 M.
On each microtiter plate, a known PS II inhibitor, e.g. metribuzin, was used as standard for assessing the quality of the PS II test.
The reaction was initiated by addition of 40 μl DCPIP solution (600 μM in distilled water); the final concentration of DCPIP was 120 μM.
Absorption was measured over a period of 10 min at 22° C. and with illumination. For calculating the active compound concentration at which 50% of the enzyme activity is inhibited (IC50), the relative enzymatic activity (in %) was plotted as a function of the logarithm of the active compound concentration.

Work on `CC1=C(C)C(O)N(C2=NN(c3ccccc3)C(C(F)(F)F)C2)C1=O` (stereo not drawn) [I.2-1413] yielded an IC50 of 5.01 µM.

test system: Veronica persica; assay: Pre-emergence herbicidal action, VERPE; type: in vivo; settings: application rate 1280 g/ha, scored visually after about 3 weeks
Description: Pre-Emergence Herbicidal Action Seeds of mono- and dicotyledonous weed plants or crop plants were placed in sandy loam in wood fibre pots and covered with soil. The formulated compounds of the general formula (I) according to the invention were then applied to the surface of the covering soil in the form of an aqueous suspension or emulsion at an application rate of 600 l of water/ha (converted) with addition of 0.2% wetting agent. After the treatment, the pots were placed in a greenhouse and kept under good growth conditions for the test plants. After about 3 weeks, the effect was scored visually in percent in comparison to untreated controls. For example, 100% activity=the plants have died, 50% herbicidal activity or damage=plants reduced to 50% or plant material reduced by 50%, 0% activity=like control plants. Here, in the biological tests, the compounds of the general formula (I) according to the invention were in each case employed in a formulation, with the numerations of Tables I.1 to I.77 also applying here. Here, the herbicidal action of the compounds of the general formula (I) according to the invention was examined for the following harmful plants: VERPE=Veronica persica The respective herbicidal action was in each case determined at the same point in time after application of the formulation in question, i.e. damage of the harmful plant in question in %. Pre-emergence herbicidal action of the compounds of the general formula (I) according to the invention: […]

Going from `CC1=C(C)C(O)N(C2=NN(c3ccccn3)C(C)(C)C2)C1=O` (stereo not drawn) [I.2-132] to `CCC(=O)OC1C(C)=C(C)C(=O)N1C1=NN(c2ccccn2)C(C)(C)C1` (stereo not drawn) [I.23-132], the “Pre-emergence herbicidal action VERPE, damage of the harmful plant” value (from here on “Pre-emergence herbicidal action VERPE”) rises from 30% to 60%.

First: CCC(=O)OC1C(C)=C(C)C(=O)N1C1=NN(c2ccccc2)CC1 (stereo not drawn) [I.23-621]
Second: CCC(=O)OC1C(C)=C(C)C(=O)N1C1=NN(c2ccccc2)C(C(F)(F)F)C1 (stereo not drawn) [I.23-1413]
The “Pre-emergence herbicidal action VERPE” value of the first is lower: 0% for the first, 60% for the second.

With `CCC(=O)OC1C(C)=C(Cl)C(=O)N1C1=NN(C)C(c2ccccc2)C1` (stereo not drawn) [I.24-1126] the “Pre-emergence herbicidal action VERPE” value was 0%.
